Reference: patent US20170347651A1, “ACTIVE COMPOUND COMBINATIONS COMPRISING A (THIO)CARBOXAMIDE DERIVATIVE AND FUNGICIDAL COMPOUND(S)” (Bayer CropScience Aktiengesellschaft, priority 2014, published 2017)

What was measured:
Leptosphaeria nodorum = experiment: in vivo preventive Leptosphaeria nodorum test (wheat); conditions: 8 days after inoculation
Method: (§1) To produce a suitable preparation of active compound, 1 part by weight of active compound or active compound combination is mixed with the stated amounts of solvent and emulsifier, and the concentrate is diluted with water to the desired concentration.
(§2) To test for preventive activity, young plants are sprayed with the preparation of active compound or active compound combination at the stated rate of application. After the spray coating has been dried, the plants are sprayed with a spore suspension of Leptosphaeria nodorum. The plants remain for 48 hours in an incubation cabinet at approximately 20° C. and a relative atmospheric humidity of approximately 100%. The plants are placed in the greenhouse at a temperature of approximately 25° C. and a relative atmospheric humidity of approximately 80%.
(§3) The test is evaluated 8 days after the inoculation. 0% means an efficacy which corresponds to that of the untreated control, while an efficacy of 100% means that no disease is observed.

Puccinia triticina = experiment: in vivo preventive Puccinia triticina test (wheat); conditions: 8 days after inoculation
Method: as §1
as §2, with “Puccinia triticina.” for “Leptosphaeria nodorum.”, “20°” for “25°”
as §3

Pyrenophora teres = experiment: in vivo preventive Pyrenophora teres test (barley); conditions: 8 days after inoculation
Method: as §1
as §2, with “Pyrenophora teres.” for “Leptosphaeria nodorum.”, “20°” for “25°”
as §3

Septoria tritici = experiment: in vivo preventive Septoria tritici test (wheat); conditions: 21 days after inoculation
Method: as §1
To test for preventive activity, young plants are sprayed with the preparation of active compound or active compound combination at the stated rate of application.
After the spray coating has been dried, the plants are sprayed with a spore suspension of Septoria tritici.
The plants remain for 48 hours in an incubation cabinet at approximately 20° C. and a relative atmospheric humidity of approximately 100% and afterwards for 60 hours at approximately 15° C. in a translucent incubation cabinet at a relative atmospheric humidity of approximately 100%.
The plants are placed in the greenhouse at a temperature of approximately 15° C. and a relative atmospheric humidity of approximately 80%.
The test is evaluated 21 days after the inoculation. 0% means an efficacy which corresponds to that of the untreated control, while an efficacy of 100% means that no disease is observed.

## CC(C)(C)C(O)(CCc1ccc(Cl)cc1)Cn1cncn1 (stereo not drawn) [tebuconazole]
Leptosphaeria nodorum; 25 ppm a.i.
  Efficacy in % found: 0%
Puccinia triticina; 30 ppm a.i.
  Efficacy in % found: 30%
Pyrenophora teres; 50 ppm a.i.
  Efficacy in % found: 0%
Septoria tritici; Table A2, wheat, 60 ppm a.i.
  Efficacy in % found: 20%

## CC(C)c1ccc(Cl)cc1CN(C(=O)c1c(C(F)F)nn(C)c1F)C1CC1 [A5, N-(5-chloro-2-isopropylbenzyl)-N-cyclopropyl-3-(difluoromethyl)-5-fluoro-1-methyl-1H-pyrazole-4-carboxamide]
Leptosphaeria nodorum; 6.25 ppm a.i.
  Efficacy in % found: 17%
Leptosphaeria nodorum; 12.5 ppm a.i.
  Efficacy in % found: 33%
Puccinia triticina; 7.5 ppm a.i.
  Efficacy in % found: 30%
Puccinia triticina; 15 ppm a.i.
  Efficacy in % found: 50%
Puccinia triticina; 30 ppm a.i.
  Efficacy in % found: 70%
Pyrenophora teres; 25 ppm a.i.
  Efficacy in % found: 71%
Septoria tritici; Table A1, wheat, 20 ppm a.i.
  Efficacy in % found: 10%
Septoria tritici; Table A2, wheat, 15 ppm a.i.
  Efficacy in % found: 30%
Septoria tritici; Table A2, wheat, 30 ppm a.i.
  Efficacy in % found: 50%

## O=C(NCCc1ncc(C(F)(F)F)cc1Cl)c1ccccc1C(F)(F)F [fluopyram]
Leptosphaeria nodorum; 9.375 ppm a.i.
  Efficacy in % found: 0%
Puccinia triticina; 45 ppm a.i.
  Efficacy in % found: 0%
Pyrenophora teres; 37.5 ppm a.i.
  Efficacy in % found: 43%
Septoria tritici; Table A2, wheat, 45 ppm a.i.
  Efficacy in % found: 40%

## OC(Cc1ccccc1Cl)(Cn1nc[nH]c1=S)C1(Cl)CC1 (stereo not drawn) [prothioconazole]
Leptosphaeria nodorum; 18.75 ppm a.i.
  Efficacy in % found: 0%
Leptosphaeria nodorum; 25 ppm a.i.
  Efficacy in % found: 0%
Puccinia triticina; 30 ppm a.i.
  Efficacy in % found: 0%
Puccinia triticina; 90 ppm a.i.
  Efficacy in % found: 20%
Pyrenophora teres; 50 ppm a.i.
  Efficacy in % found: 0%
Pyrenophora teres; 75 ppm a.i.
  Efficacy in % found: 0%
Septoria tritici; Table A1, wheat, 200 ppm a.i.
  Efficacy in % found: 30%
Septoria tritici; Table A2, wheat, 60 ppm a.i.
  Efficacy in % found: 40%
Septoria tritici; Table A2, wheat, 90 ppm a.i.
  Efficacy in % found: 20%

## CON=C(C(=O)OC)c1ccccc1CON=C(C)c1cccc(C(F)(F)F)c1 [trifloxystrobin]
Septoria tritici; Table A1, wheat, 20 ppm a.i.
  Efficacy in % found: 30%
